Results from US20190175671A1, “MICRORNA 22 REGULATORS COMPOSITIONS AND METHODS AND USES THEREOF” (priority 2017, published 2019).

Experiments:
[1] = system: Interferon Regulatory Factor 9; conditions: cited from earlier work
[2] = system: MIR22HG; assay: Expression of long non-coding RNA MIR22HG
[3] = system: microRNA 22; conditions: pancreatic cancer cells; cited from earlier work

Compound: CC(=O)Nc1ccc(O)cc1 [Acetaminophen]
- effect on IRF9 [1]: inhibitor

Compound: CC(NCCC(c1ccccc1)c1ccccc1)c1ccccc1 (stereo not drawn) [Fendiline]
- expression of lncRNA MIR22HG [2]: upregulates

Compound: COc1cc(/C=C/C(=O)CC(=O)/C=C/c2ccc(O)c(OC)c2)ccc1O [curcumin, diferuloylmethane]
- expression of microRNA 22 [3]: upregulation
